Results published in patent US20210355501A1, “INTERLEUKIN-8 FOR MAINTENANCE OF HUMAN ACUTE MYELOID LEUKEMIA AND MYELODYSPLASTIC SYNDROME AND USES THEREOF” (Albert Einstein College of Medicine, priority 2018, published 2021).
“Also recorded” adds a separate entry of the source.

Legend:
[1] = test system: IL8; assay: serum IL8 levels by ELISA in patients; assay type: in vivo, human; settings: 3 patients
Description: FIG. 1A-1C. IL8 is detectable in MDS/AML serum and correlated with disease severity. ELISA for IL8 was done on controls and MDS and AML patient serum samples. […] IL8 levels were increased after transformation of low risk MDS to higher risk MDS/AML (B) and decreased after treatment with 5-Azacytidine (C).
It was previously shown that IL8 mRNA is overexpressed in MDS and AML cells. It was now determined whether IL8 can be detected in serum of patients with MDS and AML. A total of 33 patients (MDS low risk (21), MDS high risk (6) and AML (6)) and 30 controls sera were collected and analyzed for IL8 levels by ELISA. […] Furthermore, IL8 levels went up in 3 patients that transformed from low risk MDS to higher risk MDS or AML (FIG. 1B). Additionally, IL8 levels dropped after treatment in another 3 patients that were treated with 5-Azacytidine (FIG. 1C).

[2] = test system: patient-derived xenografts from MDS/AML; assay: engraftment of patient-derived MDS/AML xenografts in NSG mice given exogenous recombinant human IL8; assay type: in vivo, mouse; settings: for engraftment of primary MDS and AML patients' cells: 3 patient derived xenografts (1 AML, 2 MDS)
Description: FIG. 2A-2E. Efficacy of human IL8 addition in patient-derived xenografts from MDS/AML. […] Averaged data in (C); data from individual subjects in (D). The improvement in engraftment is sustained (as shown for representative PDX) (E).

[3] = target: T1, CXCR2 (Homo sapiens, UniProt P25025); settings: cited from earlier work
T1 sequence (P25025 1-360): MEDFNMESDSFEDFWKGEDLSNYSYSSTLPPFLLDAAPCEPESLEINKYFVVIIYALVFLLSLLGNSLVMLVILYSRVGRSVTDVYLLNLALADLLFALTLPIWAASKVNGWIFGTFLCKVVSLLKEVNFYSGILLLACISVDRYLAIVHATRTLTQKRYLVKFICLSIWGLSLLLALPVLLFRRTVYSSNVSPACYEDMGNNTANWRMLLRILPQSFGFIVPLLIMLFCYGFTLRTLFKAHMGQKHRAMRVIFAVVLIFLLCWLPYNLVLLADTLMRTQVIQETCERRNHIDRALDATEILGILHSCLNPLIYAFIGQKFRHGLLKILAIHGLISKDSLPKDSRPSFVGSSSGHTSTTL

[4] = test system: AML cell lines; settings: all AML cell lines; cited from earlier work
[5] = test system: healthy control CD34+ cells; settings: cited from earlier work
[6] = test system: primary samples from AML and high risk MDS cases; settings: cited from earlier work
[7] = test system: primary AML patient cells; assay: AML cell engraftment in NSG mice pre-transplanted with doxycycline-induced hIL-8-transgenic bone marrow cells; assay type: in vivo, mouse; settings: 4 months post-transplantation; for increase of AML cell engraftment vs uninduced control: p=0.0106, N=8
Description: FIG. 3. Xenotransplantation of primary AML cells into NSG mice pre-transplanted with hIL8-transgenic and doxycycline-induced congenic bone marrow cells leads to a more than 10-fold increase (p=0.0106, N=8) of AML cell engraftment.
We have generated a new transgenic mouse model in which we inserted a doxycycline-inducible human IL-8 transgene into the immunocompromised NSG mouse strain. We then performed congenic transplantation of hIL-8-transgenic bone marrow cells into 8 parental NSG mice, followed by doxycycline-triggered induction of hIL-8 in 4 of the recipient mice. 4 uninduced mice served as a control. We then xenotransplanted 5×10^6 leukemic cells from an AML patient into these animals and determined AML cell engraftment in the bone marrow 4 months post-transplantation. […] We have now a novel transgenic mouse system available that permits for the first time the generation of robust primary xenografts and PDX models from AML and MDS patients' cells, which can be used for drug development and testing purposes as well as functional/mechanistic studies.

## Nc1ncn([C@@H]2O[C@H](CO)[C@@H](O)[C@H]2O)c(=O)n1 [5-Azacytidine]
[1]
  IL8 levels in serum after treatment: decreased; also recorded: dropped

## rhIL8: exogenous recombinant human IL8 injected into xenotransplant recipient mice
[2]
  engraftment of primary MDS and AML patients' cells: increased engraftment
[2]; listed as IL8
  engraftment of primary MDS and AML patients' cells: highly significant increase
[2]; NSG mice, after 3 weeks of treatment, vs vehicle controls
  engraftment from AML sample: higher engraftment

## NS(=O)(=O)c1c(Cl)ccc(NC(=O)Nc2cccc(Cl)c2Cl)c1O [SB332235]
[3]
  selectivity for CXCR2 over CXCR1: 100 fold
[4]
  proliferation: dose dependent decrease in proliferation
[5]
  growth of healthy control CD34+ cells: only minimally affecting growth
[6]
  proliferation in primary samples: significant inhibition of proliferation

## hIL-8: human IL-8 expressed from doxycycline-inducible transgene in transplanted bone marrow cells of NSG mice
[7]; doxycycline-induced hIL-8, 5×10^6 leukemic cells
  AML cell engraftment in the bone marrow (average): 42.2%
[7]
  increase of AML cell engraftment vs uninduced control: 10.4 fold
[7]; listed as hIL8
  increase of AML cell engraftment vs uninduced control: more than 10 fold
